Our source for the IC50 values is the Kinase Knowledgebase extract (Sharma et al. 2016).

The target in test [1] is CDK2 (human) (UniProt P24941). The test can be described thus: Enzyme Assay.
For test [2], the target named is CDK2 (human) (UniProt P24941). The test can be described thus: Enzyme Assay. This is another data set of the same source.

Structures are written as SMILES.

As for `Cc1cccc(C(=O)c2sc(Nc3ccc(N4CCC(N5CCCCC5)CC4)cc3)nc2N)c1`, the IC50 in test [1] and in test [2] was 2920 nM throughout.

In the case of `Cc1cccc(C(=O)c2sc(Nc3ccc(N4CCC(N(C)C)CC4)cc3)nc2N)c1`, the IC50 – broadly, the concentration needed to halve the response being measured – in test [2] stood at 3520 nM.

With `CCc1cccc(C(=O)c2sc(Nc3ccc(N4CCC(N5CCNCC5)CC4)cc3)nc2N)c1`, the half-maximal inhibitory concentration (IC50) in test [1] worked out at 989 nM.

In test [2], `Cc1cccc(C(=O)c2sc(Nc3ccc(N4CCC(N5CCCC5)CC4)cc3)nc2N)c1` had a 50% inhibitory concentration (IC50) of 2620 nM.

In the case of `Nc1nc(Nc2ccc(N3CCC(N4CCCC4)CC3)cc2)sc1C(=O)c1ccc2c(c1)OCCO2`, the 50% inhibitory concentration (IC50) in test [1] was found to be 3490 nM.

`COc1cccc(C(=O)c2sc(Nc3ccc(N4CCC(N5CCCC(O)C5)CC4)cc3)nc2N)c1` (configuration not stated) displayed an IC50 in test [1] of 970 nM.
